Data: patent US20250177426A1, “METHODS AND COMPOSITIONS FOR TREATING DEMENTIA” (Cognitive Synergy Corporation, priority 2023, published 2025)
Where “and” joins values, the source holds several entries; their conditions need not be identical. Identical values can stand only once.

Key:
[1] = test system: SH-SY5Y cells; test: Survival of SH-SY5Y cells in solutions of Aβ; type: cell-based; settings: FIG. 11, Aβ-only control 69%
Experimental: Referring to FIG. 10, FIG. 10 is a bar graph 1000 showing a percentage of survival of SH-SY5Y cells in solutions of Aβ and various concentrations of neoliquiritin. […] All the samples in the bar graph 1000 comprised the same concentration of 10 μM Aβ protein as the control sample as well as a variable concentration of neoliquiritin.
Referring to FIG. 11, FIG. 11 is a bar graph 1100 showing a percentage of survival of SH-SY5Y cells in solutions of neoliquiritin, isoliquiritigenin, isoliquiritin, sinapic acid O-glucoside, trans-sinapic acid, and liquiritigenin at various concentrations. […] The other samples in the bar graph 1100 all contain the same concentration of 10 μM Aβ protein as a control sample.

[2] = target: T1, Aβ protein (Homo sapiens, UniProt P05067); test: Aβ fibrillization, percent of control; type: biochemical; settings: for fibrillization of Aβ protein: FIG. 9, control = 100; for Aβ fibrillization as compared to the control: FIG. 12; for Aβ fibrillization as compared to control: FIG. 7
T1 construct: The bar graph 700 includes a control sample with 10 μM Aβ protein
T1 sequence (P05067 672-711 limits assumed): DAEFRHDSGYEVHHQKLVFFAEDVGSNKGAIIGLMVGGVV
Experimental: Referring to FIG. 7, FIG. 7 is a bar graph 700 showing a percentage of Aβ fibrillization as compared to a control for neoliquiritin, sebiricose A5, (Z)SA glycoside, and (E)SA glycoside. The bar graph 700 includes a control sample with 10 μM Aβ protein. The amount of Aβ fibrillization in the control sample is normalized to 100%. All other samples in the bar graph 700 include 10 μM Aβ protein and another compound at a concentration of 100 μM.
Referring to FIG. 8, FIG. 8 is a bar graph 800 showing a percentage of Aβ fibrillization as compared to a control for neoliquiritin samples of various concentrations. The amount of Aβ fibrillization in the control sample is normalized to 100%. All other samples in the bar graph 800 include 10 μM Aβ protein and a variable concentration of neoliquiritin.
Referring to FIG. 9, FIG. 9 is a bar graph 900 showing a percentage of Aβ fibrillization as compared to a control for neoliquiritin and liquiritigenin samples of various concentrations. Like the other bar graphs, the control sample is on the left side of the bar graph 900. The control sample comprises 10 μM Aβ protein and the percent fibrillization of Aβ protein in the control sample is normalized to 100. All other samples, which contain either neoliquiritin or liquiritigenin, also include a concentration of 10 μM Aβ protein.
Referring to FIG. 12, FIG. 12 is a bar graph 1200 showing a percentage of Aβ fibrillization as compared to a control for sinapic acid, trans-sinapic acid, and sinapic acid O-glucoside at various concentrations. On the left side of the bar graph 1200, a control sample comprising 10 μM Aβ protein has a fibrillization measurement normalized to 100. All other samples include the same concentration of 10 μM Aβ protein as a control sample.

[3] = target: T2, Aβ fibrils (Homo sapiens, UniProt P05067); test: Relative fluorescence of prefibrillated Aβ after timed treatment; type: biochemical; settings: FIG. 14, 50 μM compound
T2 construct: The bar graph 700 includes a control sample with 10 μM Aβ protein
T2 sequence (P05067 672-711 limits assumed): as above
Source text: Control samples containing only Aβ protein as starting material are unshaded. Other samples containing Aβ protein and an additional compound have shading according to the legend on the bottom of the bar graphs 1400.

[4] = 10 μM Aβ protein and 1 μM compound
[5] = 10 μM Aβ protein and 10 μM compound
[6] = 10 μM Aβ protein and 100 nM compound
[7] = 10 μM Aβ protein and 100 μM compound

O=C1C[C@@H](c2ccc(O)cc2)Oc2cc(O)ccc21 [liquiritigenin, reference compound]
survival for the SH-SY5Y cells [1, 4]: 67%
survival for the SH-SY5Y cells [1, 5]: 67%
fibrillization of Aβ protein ([2]; 100 nM compound and 10 μM Aβ protein): 94%
fibrillization of Aβ protein ([2]; 10 μM compound and 10 μM Aβ protein): 92% and 90%
fibrillization of Aβ protein ([2]; 50 μM compound and 10 μM Aβ protein): 97%
fibrillization of Aβ protein ([2]; 100 μM compound and 10 μM Aβ protein): 83%

O=C(/C=C/c1ccc(O)cc1)c1ccc(O)cc1O [isoliquiritigenin]
survival for the SH-SY5Y cells [1, 4]: 84%
survival for the SH-SY5Y cells [1, 5]: 81%

COc1cc(/C=C/C(=O)O)cc(OC)c1O [SA, sinapic acid, reference compound]
Aβ fibrillization as compared to the control [2, 6]: 105%
Aβ fibrillization as compared to the control [2, 4]: 101%
Aβ fibrillization as compared to the control [2, 5]: 114%
Aβ fibrillization as compared to the control [2, 7]: 85%

COc1cc(/C=C/C(=O)O)cc(OC)c1O [T-SA, trans-sinapic acid, reference compound]
Relative fluorescence for Aβ fibrils ([3]; 46.5 hours, Aβ only approximately 900000): approximately 850000 RFU
Relative fluorescence for Aβ fibrils ([3]; 48 hours, Aβ only approximately 1070000): approximately 940000 RFU
Relative fluorescence for Aβ fibrils ([3]; 60 hours, Aβ only approximately 1010000): approximately 940000 RFU
Relative fluorescence for Aβ fibrils ([3]; 72 hours, Aβ only approximately 980000): approximately 770000 RFU
survival for the SH-SY5Y cells [1, 4]: 76%
survival for the SH-SY5Y cells [1, 5]: 77%
Aβ fibrillization as compared to the control [2, 6]: 98%
Aβ fibrillization as compared to the control [2, 4]: 95%
Aβ fibrillization as compared to the control [2, 5]: 89%
Aβ fibrillization as compared to the control [2, 7]: 79%

COc1cc(/C=C/C(=O)O)cc(OC)c1O[C@@H]1O[C@H](O)[C@@H](O)[C@H](O)[C@H]1O [(E)SA glycoside]
Aβ fibrillization as compared to control [2, 7]: 51%

O=C(/C=C/c1ccc(O[C@@H]2O[C@H](CO)[C@@H](O)[C@H](O)[C@H]2O)cc1)c1ccc(O)cc1O [isoliquiritin]
survival for the SH-SY5Y cells [1, 4]: 72%
survival for the SH-SY5Y cells [1, 5]: 74%

Sebiricose A5 [reference compound]
Aβ fibrillization as compared to control [2, 7]: 86%
